Assay results as given in ChEMBL document CHEMBL2163206, “New nitrogen containing substituents at the indole-2-carboxamide yield high potent and broad spectrum indolylarylsulfone HIV-1 non-nucleoside reverse transcriptase inhibitors” (J Med Chem, 2012).

Assays:
[1] = Cytotoxicity against mock-infected human MT4 cells measured after 5 days by MTT assay; type: cell-based
[2] = tested on: Human immunodeficiency virus 1; test: Antiviral activity against HIV1 NL4-3 infected in human MT4 cells assessed as inhibition of virus-induced cytopathicity measured 5 days post infection by MTT assay; type: functional, organism-based; conditions: Human immunodeficiency virus 1, NL4-3, MT4, 120 h
in vitro = conditions: human
Description: Selectivity index, ratio of CC50 for mock-infected human MT4 cells to EC50 for HIV1 NL4-3 infected in human MT4 cells

[3] = biological target: Human immunodeficiency virus type 1 reverse transcriptase (Human immunodeficiency virus 1, UniProt Q72547, L100I); test: Inhibition of HIV1 reverse transcriptase L100I mutant RNA-dependent DNA polymerase activity using poly(rA)/oligo(dT)10:1 and [3H]-dTTP substrate
[4] = biological target: Human immunodeficiency virus type 1 reverse transcriptase (Human immunodeficiency virus 1, UniProt Q72547, K103N); test: Inhibition of HIV1 reverse transcriptase K103N mutant RNA-dependent DNA polymerase activity using poly(rA)/oligo(dT)10:1 and [3H]-dTTP substrate
[5] = biological target: Human immunodeficiency virus type 1 reverse transcriptase (Human immunodeficiency virus 1, UniProt Q72547); test: Inhibition of wild type HIV1 reverse transcriptase RNA-dependent DNA polymerase activity using poly(rA)/oligo(dT)10:1 and [3H]-dTTP substrate
[6] = tested on: Human immunodeficiency virus 1; type: functional, organism-based; conditions: Human immunodeficiency virus 1, MT4, 120 h
[7] = tested on: Human immunodeficiency virus 1; test: Antiviral activity against HIV1 containing reverse transcriptase K103N mutant infected in human MT4 cells assessed as inhibition of virus-induced cytopathicity measured 5 days post infection by MTT assay; type: functional, organism-based; conditions: Human immunodeficiency virus 1, MT4, 120 h
[8] = tested on: Human immunodeficiency virus 1; test: microbe, parasite or virus in culture; conditions: Human immunodeficiency virus 1, MT4, 120 h
Description: Antiviral activity against HIV1 containing reverse transcriptase Y188L mutant infected in human MT4 cells assessed as inhibition of virus-induced cytopathicity measured 5 days post infection by MTT assay

[9] = tested on: Human immunodeficiency virus 2; test: Antiviral activity against HIV2 infected in human PBMCs assessed as inhibition of p24 antigen production by ELISA; type: functional, organism-based
[10] = tested on: Human immunodeficiency virus 1; test: Antiviral activity against HIV1 NL4-3 infected in human PBMCs assessed as inhibition of p24 antigen production by ELISA; type: functional, organism-based; conditions: Human immunodeficiency virus 1, NL4-3
[11] = tested on: Human immunodeficiency virus 1; type: functional, organism-based; conditions: Human immunodeficiency virus 1, IRLL98, MT4, 120 h
[12] = tested on: Human immunodeficiency virus 1; test: Potency index, ratio of EC50 for Efavirenz to EC50 for compound against HIV1 containing reverse transcriptase K103N mutant infected in human MT4 cells assessed as inhibition of virus-induced cytopathicity measured 5 days post infection by MTT assay; type: functional
[13] = tested on: Human immunodeficiency virus 1; test: microbe, parasite or virus in culture; conditions: Human immunodeficiency virus 1, clade G (BCF-DIOUM)
Description: Antiviral activity against HIV1 clade G (BCF-DIOUM) infected in human PBMCs assessed as inhibition of p24 antigen production by ELISA

[14] = tested on: Human immunodeficiency virus 1; test: microbe, parasite or virus in culture; conditions: Human immunodeficiency virus 1, clade F (BZ162)
Description: Antiviral activity against HIV1 clade F (BZ162) infected in human PBMCs assessed as inhibition of p24 antigen production by ELISA

[15] = tested on: Human immunodeficiency virus 1; test: microbe, parasite or virus in culture; conditions: Human immunodeficiency virus 1, clade B (BaL)
Description: Antiviral activity against HIV1 clade B (BaL) infected in human PBMCs assessed as inhibition of p24 antigen production by ELISA

[16] = tested on: Human immunodeficiency virus 1; test: microbe, parasite or virus in culture; conditions: Human immunodeficiency virus 1, clade A (UG273)
Description: Antiviral activity against HIV1 clade A (UG273) infected in human PBMCs assessed as inhibition of p24 antigen production by ELISA

[17] = tested on: Human immunodeficiency virus 1; test: microbe, parasite or virus in culture; conditions: Human immunodeficiency virus 1, clade A/E (ID12)
Description: Antiviral activity against HIV1 clade A/E (ID12) infected in human PBMCs assessed as inhibition of p24 antigen production by ELISA

[18] = tested on: Human immunodeficiency virus 1; test: microbe, parasite or virus in culture; conditions: Human immunodeficiency virus 1, clade C (SM145)
Description: Antiviral activity against HIV1 clade C (SM145) infected in human PBMCs assessed as inhibition of p24 antigen production by ELISA

[19] = tested on: Human immunodeficiency virus 1; test: microbe, parasite or virus in culture; conditions: Human immunodeficiency virus 1, clade C (DJ259)
Description: Antiviral activity against HIV1 clade C (DJ259) infected in human PBMCs assessed as inhibition of p24 antigen production by ELISA

[20] = tested on: Human immunodeficiency virus 1; test: microbe, parasite or virus in culture; conditions: Human immunodeficiency virus 1, clade D (UG270)
Description: Antiviral activity against HIV1 clade D (UG270) infected in human PBMCs assessed as inhibition of p24 antigen production by ELISA

SMILES	CC50 at 120 h [1]	EC50 [2]	selectivity ratio (in vitro)	IC50 [3]	IC50 [4]	IC50 [5]	EC50 [6]	EC50 [7]	EC50 [8]	other results
Cc1cc(C)cc(S(=O)(=O)c2c(C(=O)NCc3ccnc4ccccc34)[nH]c3ccc(Cl)cc23)c1	> 9.92 µM	0.012 µM	> 827	–	–	–	–	–	–	–
Cc1cc(C)cc(S(=O)(=O)c2c(C(=O)NCc3ccc(C#N)cc3)[nH]c3ccc(Cl)cc23)c1	> 10.5 µM	0.0015 µM	> 6970	> 0.004 µM	> 0.01 µM	> 0.01 µM	0.0321 µM	0.118 µM	> 10.7 µM	–
Cc1cc(C)cc(S(=O)(=O)c2c(C(=O)NCCc3ccccn3)[nH]c3ccc(Cl)cc23)c1	> 10.7 µM	0.002 µM	> 5340	–	–	–	–	–	–	–
Cc1cc(C)cc(S(=O)(=O)c2c(C(=O)NC(C)C(N)=O)[nH]c3ccc(Cl)cc23)c1 (racemic)	6.04 µM	0.002 µM	3020	–	–	–	–	–	–	–
Cc1cc(C)cc(S(=O)(=O)c2c(C(=O)NCCc3ccncc3)[nH]c3ccc(Cl)cc23)c1	> 10.7 µM	0.002 µM	> 5340	–	–	–	–	–	–	–
Cc1cc(C)cc(S(=O)(=O)c2c(C(=O)NCc3cccnc3)[nH]c3ccc(Cl)cc23)c1	> 11 µM	0.0022 µM	> 5010	0.008 µM	0.032 µM	0.02 µM	0.0088 µM	0.0378 µM	0.044 µM	–
Cc1cc(C)cc(S(=O)(=O)c2c(C(=O)Nc3ccccc3C#N)[nH]c3ccc(Cl)cc23)c1	> 10.8 µM	0.002 µM	> 5390	–	–	–	–	–	–	–
Cc1cc(C)cc(S(=O)(=O)c2c(C(=O)NCCc3cccnc3)[nH]c3ccc(Cl)cc23)c1	> 10.7 µM	0.0021 µM	> 5090	0.024 µM	0.162 µM	0.04 µM	0.0063 µM	0.0273 µM	0.504 µM	–
Cc1cc(C)cc(S(=O)(=O)c2c(C(=O)NCc3ccncc3)[nH]c3ccc(Cl)cc23)c1	> 11 µM	0.002 µM	> 5510	0.011 µM	0.045 µM	0.021 µM	0.0022 µM	0.0088 µM	0.022 µM	EC50 [9]: > 0.2 µM; EC50 [10]: 0.0004 µM; EC50 [11]: 0.001 µM; Ratio EC50 [12]: 8; EC50 [13]: 0.0017 µM; EC50 [14]: 0.0006 µM; EC50 [15]: 0.0001 µM; EC50 [16]: 0.0006 µM; EC50 [17]: 0.0006 µM; EC50 [18]: 0.0003 µM; EC50 [19]: 0.0004 µM; EC50 [20]: 0.0004 µM
Cc1ccnc2c1NC(=O)c1cccnc1N2C1CC1 [NEVIRAPINE]	> 18.8 µM	1.5 µM	–	–	–	–	> 3.76 µM	> 3.76 µM	> 3.76 µM	EC50 [11]: > 18.9 µM
Cc1cn([C@H]2C[C@H](N=[N+]=[N-])[C@@H](CO)O2)c(=O)[nH]c1=O [ZIDOVUDINE]	> 18.7 µM	0.0078 µM	> 2400	–	–	–	0.0016 µM	0.0156 µM	0.0117 µM	EC50 [11]: 0.0038 µM
Cc1cc(C)cc(S(=O)(=O)c2c(C(=O)Nc3cccc(C#N)c3)[nH]c3ccc(Cl)cc23)c1	> 10.8 µM	0.0022 µM	> 4900	0.287 µM	> 0.04 µM	0.506 µM	0.044 µM	0.0198 µM	1.39 µM	–
Cc1nnc(C(C)C)n1[C@H]1C[C@H]2CC[C@@H](C1)N2CC[C@H](NC(=O)C1CCC(F)(F)CC1)c1ccccc1 (relative stereo) [MARAVIROC]	–	–	–	–	–	–	–	–	–	EC50 [13]: 0.001 µM; EC50 [14]: 0.001 µM; EC50 [15]: 0.001 µM; EC50 [16]: 0.001 µM; EC50 [17]: 0.001 µM; EC50 [18]: 0.001 µM; EC50 [19]: 0.001 µM; EC50 [20]: 0.001 µM
Cc1cc(C)cc(S(=O)(=O)c2c(C(=O)NCc3ccccn3)[nH]c3ccc(Cl)cc23)c1	> 11 µM	0.002 µM	> 5510	–	–	–	–	–	–	–
Cc1cc(C)cc(S(=O)(=O)c2c(C(=O)Nc3ccc(C#N)cc3)[nH]c3ccc(Cl)cc23)c1	> 10.8 µM	0.011 µM	> 980	–	–	–	–	–	–	–
O=C1Nc2ccc(Cl)cc2[C@@](C#CC2CC2)(C(F)(F)F)O1 [EFAVIRENZ]	> 15.8 µM	0.0063 µM	–	–	–	–	0.158 µM	0.0693 µM	–	EC50 [11]: 0.98 µM
